Where “and” joins values, the source holds several entries; their conditions need not be identical. Equal entries are not always repeated. Where two headings read alike, the source gives them in different places.
Experiments:
[1] = human, in vivo; cited from earlier work
[2] = system: lipoprotein-associated phospholipase-A2; details: in vivo; cited from earlier work
[3] = over 20 epidemiological clinical trials; cited from earlier work
[4] = target: 5HT6 receptor (Homo sapiens, UniProt P50406); details: in vivo; cited from earlier work
[5] = target: T1, beta-secretase (Homo sapiens, UniProt P56817); details: in vivo; cited from earlier work
T1 construct: from tissue; host or cells: clinical-trial subjects (in vivo)

[6] = system: SK-N-MC neurons; assay: Morphological scoring of SK-N-MC cells exposed to Abeta42 plus A7R compounds; format: cell-based, human
[7] = system: SK-N-MC neurons; assay: Abeta42 immunocytochemistry: intracellular Abeta42 labeling in SK-N-MC cells exposed to Abeta42 plus A7R compounds; format: cell-based, human
[8] = system: A7R-transfected SK-N-MC human neuroblastoma cells; details: cited from earlier work; for Intracellular accumulation of the peptide: 100 nanomolar
[9] = target: A7R (Rattus norvegicus, UniProt Q05941); details: rat receptors; read-out: Ki, binding to A7R; cited from earlier work
[10] = target: A7R; details: guinea pig receptors; read-out: Ki, binding to A7R; cited from earlier work
[11] = system: C57BL/6J mice; assay: CognitionWall discrimination learning test, 2-week study; format: in vivo
Protocol: This 2-week study was comprised of 2 groups of C57BL/6J mice as outlined in Table 5. Mice were infused with 100 μl pertussis toxin (3.0×10−3 μg/μl in saline) or 100 μl saline into the tail vein according to Table 5 to affect the BBB. Subsequently, Abeta42 (100 μl of 6.9 μM in saline) was infused into the tail vein. Groups 1 and 2 received 2 cycles of Abeta42 treatment.
Deficits in learning behavior correlated with degenerating neurons in mice treated with pertussis toxin and Abeta42 as compared with untreated mice in the 2-week study. The CognitionWall discrimination learning test was used to test learning behaviors in the mice. Fifteen minutes before the start of the discrimination learning (DL) and reversal learning (RL) task at 16.30 h on the 3th light phase in the Phenotyper, the CognitionWall was placed in front of the reward dispenser spout. After placement, several free rewards were dispensed and standard chow was removed from the feeding station. Mice had to learn to earn their food (Dustless Precision Pellets, 14 mg) by going through the left hole in the wall for the next 2 days (DL1 and DL2). The middle and right hole were deemed incorrect holes and passing through these holes was without any consequences. During the subsequent 2 days, the rewarded hole was switched to the right hole (reversal learning; RL1 and RL2). During DL and RL, one reward was delivered for every fifth entry through the correct hole (FR5 schedule of reinforcement). Mice were not required to make 5 consecutive correct entries (i.e., no chaining requirement). […] Online display of the number of earned rewards was used to evaluate food intake during the experiment. Based on pilot experiments to quantify the number of food rewards required to maintain body weight, mice were fed extra reward pellets when they earn fewer than 100 rewards per day for 2 or more consecutive days. […]

[12] = system: Human neuroblastoma SK-N-MC cells, transfected with A7R; details: 100 nanomolar for 6 hours; cited from earlier work
[13] = system: amyloid; details: Alzheimer's disease subjects; Solanezumab: Phase 3, mild Alzheimer's disease; cited from earlier work
[14] = system: ischemic brain; details: rat, in vivo; cited from earlier work

T1 sequence (P56817 46-501): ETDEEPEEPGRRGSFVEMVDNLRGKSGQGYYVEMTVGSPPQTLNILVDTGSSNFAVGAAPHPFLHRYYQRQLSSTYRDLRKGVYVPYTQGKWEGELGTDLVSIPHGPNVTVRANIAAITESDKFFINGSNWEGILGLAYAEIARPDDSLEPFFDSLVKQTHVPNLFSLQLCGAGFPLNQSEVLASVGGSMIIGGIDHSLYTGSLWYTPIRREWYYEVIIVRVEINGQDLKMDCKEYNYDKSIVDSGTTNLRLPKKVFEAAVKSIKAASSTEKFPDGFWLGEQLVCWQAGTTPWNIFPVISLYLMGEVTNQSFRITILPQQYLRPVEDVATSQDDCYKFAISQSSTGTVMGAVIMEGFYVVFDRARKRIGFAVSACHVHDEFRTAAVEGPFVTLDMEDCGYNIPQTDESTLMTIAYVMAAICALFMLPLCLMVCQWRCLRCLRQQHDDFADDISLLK
5HT6 receptor, sequence (P50406 whole entry): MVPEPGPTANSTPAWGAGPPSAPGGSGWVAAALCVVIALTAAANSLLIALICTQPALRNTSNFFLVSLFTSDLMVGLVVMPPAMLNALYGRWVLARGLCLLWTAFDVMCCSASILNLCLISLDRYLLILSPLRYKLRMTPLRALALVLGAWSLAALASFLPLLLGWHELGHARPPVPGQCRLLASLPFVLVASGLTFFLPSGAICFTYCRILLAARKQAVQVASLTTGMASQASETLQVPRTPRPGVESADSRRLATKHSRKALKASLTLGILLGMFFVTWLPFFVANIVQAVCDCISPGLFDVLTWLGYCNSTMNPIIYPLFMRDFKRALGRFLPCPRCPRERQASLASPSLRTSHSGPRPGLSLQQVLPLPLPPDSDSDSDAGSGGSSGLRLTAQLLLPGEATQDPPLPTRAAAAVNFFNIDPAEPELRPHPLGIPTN
A7R (Rattus norvegicus, UniProt Q05941), sequence (Q05941 23-502): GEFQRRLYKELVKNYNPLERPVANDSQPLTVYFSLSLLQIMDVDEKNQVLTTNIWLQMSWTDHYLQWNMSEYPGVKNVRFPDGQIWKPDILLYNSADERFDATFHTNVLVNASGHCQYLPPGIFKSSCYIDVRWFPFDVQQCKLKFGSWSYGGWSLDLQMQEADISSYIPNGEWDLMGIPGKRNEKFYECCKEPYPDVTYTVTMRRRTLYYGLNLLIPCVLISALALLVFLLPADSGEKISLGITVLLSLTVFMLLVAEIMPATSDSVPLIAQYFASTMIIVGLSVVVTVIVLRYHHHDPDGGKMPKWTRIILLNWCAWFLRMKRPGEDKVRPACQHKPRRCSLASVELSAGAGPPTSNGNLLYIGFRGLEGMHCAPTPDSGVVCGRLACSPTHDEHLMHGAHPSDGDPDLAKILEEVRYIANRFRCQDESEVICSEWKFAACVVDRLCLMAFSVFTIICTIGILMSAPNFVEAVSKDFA
amyloid, sequence (P05067 672-711): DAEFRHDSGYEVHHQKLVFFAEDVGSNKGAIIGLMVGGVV

CC(C)c1c(C(=O)Nc2ccccc2)c(-c2ccccc2)c(-c2ccc(F)cc2)n1CC[C@@H](O)C[C@@H](O)CC(=O)O [Atorvastatin]
Cognitive measures [1]: did not improve cognitive measures

CCN(CC)CCN(Cc1ccc(-c2ccc(C(F)(F)F)cc2)cc1)C(=O)Cn1c(SCc2ccc(F)cc2)nc(=O)c2c1CCC2 [Darapladib]
BBB leakage [2]: reducing BBB leakage
Progression of atherosclerosis [2]: blocked the progression of atherosclerosis

CC(C)Cc1ccc(C(C)C(=O)O)cc1 (stereo not drawn) [Ibuprofen]
Risk of Alzheimer's disease [3]: reduce the risk of Alzheimer's disease

COc1ccc2c(c1)c(CC(=O)O)c(C)n2C(=O)c1ccc(Cl)cc1 [Indomethacin]
Risk of Alzheimer's disease [3]: reduce the risk of Alzheimer's disease

O=S(=O)(c1ccccc1)c1cnc2c(N3CCNCC3)cccc2c1 [Intepirdine]
Goals of a pivotal trial [4]: failed to meet the goals of a pivotal trial

NC1=N[C@@]2(c3cc(NC(=O)c4ccc(F)cn4)ccc3F)COC[C@H]2CS1 [LY2886721]
Reason for stopping the clinical studies [5]: toxicity

CN1CCCC1c1cccnc1 (stereo not drawn) [Nicotine]
Morphologic scores 2 hr [6]: 2.7
Morphologic scores 4 hr [6]: 2.8
Morphologic scores 6 hr [6]: 2.8
Abeta42 immunolabeling scores 2 hr [7]: 1.7
Abeta42 immunolabeling scores 6 hr [7]: 0.3

c1cnc2cc3c(cc2n1)[C@@H]1CNC[C@H]3C1 [Varenicline]
Protection of cells from Abeta42 toxicity (observed morphology) ([6]; cells treated with compound and Abeta42, similar at the other time points): protected from Abeta42 toxicity

Abeta40
Intracellular accumulation of the peptide ([8]; 3 hours): little detectable accumulation

Abeta42
Ki [9]: 4.1 pM
Intracellular accumulation of the peptide ([8]; 3 hours): prominent, irregularly shaped Abeta42-positive deposits
Intracellular accumulation of the peptide ([8]; within 30 minutes): some accumulation of Abeta42-positive material
Ki [10]: 5 pM
Learning performance in words ([11]; 2-week pilot study, 6 mice per group): did not impact learning impairment
Entries to reach the learning criterion, group value ([11]; 2 NA scores estimated as ~500): ~230 entries
Entries (entries to 80% correct learning criterion) ([11]; individual mouse, 2-week study, NA = too impaired to test, T1, T2 second Abeta42 dose most likely subcutaneous): 307 and 130 and 180 and 264 and 134 and 370
Cell death [12]: cell death

Alpha-bungarotoxin
Inhibition of Abeta42 accumulation in transfected cells [8]: inhibited Abeta42 accumulation
Morphologic scores 6 hr [6]: 2.5
Abeta42 immunolabeling scores 1 hr [7]: 0/1
Abeta42 immunolabeling scores 2 hr [7]: 1/0
Abeta42 immunolabeling scores 4 hr [7]: 1/0

Solanezumab: yet another anti-amyloid antibody
Clinical trial efficacy end points [13]: failed to reach statistical significance

VEGF
Angiogenesis in the ischemic brain [14]: enhanced angiogenesis
Neurological recovery [14]: improved neurological recovery
